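1) Cells in 96-well plates. 2) Compound, 48 h, 5 concentrations. 3) Linear interpolation between surrounding doses. 4) Unreached endpoint = highest concentration. Definition used: TGI = concentration required for complete inhibition of growth.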
How the values were obtained:
Experiment in all cases: growth of human tumour cells (NCI), 48 h
PC-3 prostate = test system: PC-3 prostate
SF-295 CNS = test system: SF-295 CNS
SNB-75 CNS = test system: SNB-75 CNS
M14 melanoma = test system: M14 melanoma
HCT-15 colon = test system: HCT-15 colon
HS 578T breast = test system: HS 578T breast
UACC-62 melanoma = test system: UACC-62 melanoma
NCI-H460 lung = test system: NCI-H460 lung
CAKI-1 renal = test system: CAKI-1 renal
IGROV1 ovarian = test system: IGROV1 ovarian
MDA-MB-435 = test system: MDA-MB-435
OVCAR-3 ovarian = test system: OVCAR-3 ovarian
A549 NSCLC = test system: A549 NSCLC
ACHN renal = test system: ACHN renal
SNB-19 CNS = test system: SNB-19 CNS
SK-MEL-2 melanoma = test system: SK-MEL-2 melanoma
TK-10 renal = test system: TK-10 renal
K-562 leukemia = test system: K-562 leukemia
LOX IMVI melanoma = test system: LOX IMVI melanoma
HT29 colon = test system: HT29 colon
OVCAR-4 ovarian = test system: OVCAR-4 ovarian
OVCAR-8 ovarian = test system: OVCAR-8 ovarian
KM12 colon = test system: KM12 colon
786-0 renal = test system: 786-0 renal
NCI-H23 lung = test system: NCI-H23 lung
SK-MEL-5 melanoma = test system: SK-MEL-5 melanoma
NCI-H226 lung = test system: NCI-H226 lung
BT-549 breast = test system: BT-549 breast
UO-31 renal = test system: UO-31 renal
EKVX NSCLC = test system: EKVX NSCLC
SK-MEL-28 melanoma = test system: SK-MEL-28 melanoma
HOP-62 NSCLC = test system: HOP-62 NSCLC
RPMI-8226 leukemia = test system: RPMI-8226 leukemia
MALME-3M melanoma = test system: MALME-3M melanoma
COLO 205 colon = test system: COLO 205 colon
HCT-116 colon = test system: HCT-116 colon
MDA-N = test system: MDA-N
SF-268 CNS = test system: SF-268 CNS
SR leukemia = test system: SR leukemia
HOP-92 NSCLC = test system: HOP-92 NSCLC
T-47D breast = test system: T-47D breast
MOLT-4 leukemia = test system: MOLT-4 leukemia
SK-OV-3 ovarian = test system: SK-OV-3 ovarian
NCI/ADR-RES ovarian = test system: NCI/ADR-RES ovarian
SW-620 colon = test system: SW-620 colon
UACC-257 melanoma = test system: UACC-257 melanoma
SN12C renal = test system: SN12C renal
MDA-MB-231 breast = test system: MDA-MB-231 breast
OVCAR-5 ovarian = test system: OVCAR-5 ovarian
HCC-2998 colon = test system: HCC-2998 colon
SF-539 CNS = test system: SF-539 CNS
A498 renal = test system: A498 renal
U251 CNS = test system: U251 CNS
MCF7 breast = test system: MCF7 breast

**Q.** Which results are given for `CCCCc1ccc(N2C(=O)c3cc([N+](=O)[O-])cnc3S2(=O)=O)cc1`?
**A.** TGI (PC-3 prostate): > 100 µM; TGI (SF-295 CNS): > 100 µM; TGI (SNB-75 CNS): > 100 µM; TGI (M14 melanoma): > 100 µM; TGI (HCT-15 colon): > 100 µM; TGI (HS 578T breast): > 100 µM; TGI (UACC-62 melanoma): > 100 µM; TGI (NCI-H460 lung): > 100 µM; TGI (CAKI-1 renal): > 100 µM; TGI (IGROV1 ovarian): > 100 µM; TGI (MDA-MB-435): > 100 µM; TGI (OVCAR-3 ovarian): > 100 µM; TGI (A549 NSCLC): > 100 µM; TGI (ACHN renal): > 100 µM; TGI (SNB-19 CNS): > 100 µM; TGI (SK-MEL-2 melanoma): 59 µM; TGI (TK-10 renal): > 100 µM; TGI (K-562 leukemia): > 100 µM; TGI (LOX IMVI melanoma): > 100 µM; TGI (HT29 colon): > 100 µM; TGI (OVCAR-4 ovarian): > 100 µM; TGI (OVCAR-8 ovarian): > 100 µM; TGI (KM12 colon): > 100 µM; TGI (786-0 renal): > 100 µM; TGI (NCI-H23 lung): > 100 µM; TGI (SK-MEL-5 melanoma): > 100 µM; TGI (NCI-H226 lung): > 100 µM; TGI (BT-549 breast): > 100 µM; TGI (UO-31 renal): > 100 µM; TGI (EKVX NSCLC): > 100 µM; TGI (SK-MEL-28 melanoma): > 100 µM; TGI (HOP-62 NSCLC): > 100 µM; TGI (RPMI-8226 leukemia): > 100 µM; TGI (MALME-3M melanoma): > 100 µM; TGI (COLO 205 colon): > 100 µM; TGI (HCT-116 colon): > 100 µM; TGI (MDA-N): > 100 µM; TGI (SF-268 CNS): > 100 µM; TGI (SR leukemia): > 100 µM; TGI (HOP-92 NSCLC): 8.03 µM; TGI (T-47D breast): > 100 µM; TGI (MOLT-4 leukemia): > 100 µM; TGI (SK-OV-3 ovarian): > 100 µM; TGI (NCI/ADR-RES ovarian): > 100 µM; TGI (SW-620 colon): > 100 µM; TGI (UACC-257 melanoma): > 100 µM; TGI (SN12C renal): > 100 µM; TGI (MDA-MB-231 breast): > 100 µM; TGI (OVCAR-5 ovarian): > 100 µM; TGI (HCC-2998 colon): > 100 µM; TGI (SF-539 CNS): > 100 µM; TGI (A498 renal): > 100 µM; TGI (U251 CNS): > 100 µM; TGI (MCF7 breast): > 100 µM
